Calls of active or inactive are those of the source. No cut-off for these calls is given here. Starred links: 1 amine or outer side, 2 acyl side, 3 side chain; linkers in the order of their positions; H or OH if unused. Non-standard residues stand in square brackets, D forms with d. Residues, ends and D or L forms follow the SMILES beside them. X2 = CCN1C(=O)c2cccc3c(-n4cc(C[C@H](N[*:1])C(=O)[*:2])nn4)ccc(c23)C1=O; X1 = O=C([C@H](Cc1cn(-c2ccc3ccc4cccc5ccc2c3c45)nn1)N[*:1])[*:2]; X5 = Cc1cc(=O)[nH]c2cc(-n3cc(C[C@H](N[*:1])C(=O)[*:2])nn3)ccc12; X4 = O=C([C@H](Cc1cn(-c2cc3ccc(O)cc3oc2=O)nn1)N[*:1])[*:2]; X3 = O=C([C@H](Cc1cn(-c2cccc3ccccc23)nn1)N[*:1])[*:2]

Experiment [1] has as its target Tyrosine-protein kinase Lyn (Homo sapiens) (UniProt P07948). Put plainly: Binding affinity to Lyn assessed as increase of fluorescence after 60 mins relative to control.
Experiment [2] has the same target. Put plainly: Binding affinity to Lyn in human K562 CML cells assessed as increase of fluorescence after 60 mins in presence of Bcr-Abl inhibitor Imatinib. In kind it is cell-based.
The target is the same in experiment [3]. Description: Induction of Lyn phosphorylation in human K562 CML cells assessed as peptide substrate consumption at 25 uM after 60 mins in presence of Bcr-Abl inhibitor Imatinib. Type of experiment: cell-based.
The target is the same in experiment [4]. Description: Induction of Lyn phosphorylation in human K562 CML cells assessed as peptide substrate consumption at 25 uM after 20 mins. In kind it is cell-based.
The target is the same in experiment [5]. Put plainly: Induction of Lyn phosphorylation in human K562 CML cells assessed as peptide substrate consumption at 25 uM after 10 mins. Type of experiment: cell-based.
Experiment [6] shares this target. Put plainly: Binding affinity to Lyn assessed as increase of fluorescence after 60 mins by HPLC analysis.
For experiment [7] the target is unchanged. Description: Induction of Lyn phosphorylation in human K562 CML cells assessed as peptide substrate consumption at 25 uM after 40 mins. In kind it is cell-based.
The target is the same in experiment [8]. Put plainly: Induction of Lyn phosphorylation in human K562 CML cells assessed as peptide substrate consumption at 25 uM after 10 mins in presence of Bcr-Abl inhibitor Imatinib. In kind it is cell-based.
Experiment [9] has the same target. Put plainly: Binding affinity to Lyn in human K562 CML cells assessed as increase of fluorescence after 60 mins in presence of SFK inhibitor SU6656. In kind it is cell-based.
Experiment [10] shares this target. Description: Induction of Lyn phosphorylation in human K562 CML cells assessed as peptide substrate consumption at 25 uM after 60 mins. Type of experiment: cell-based.
Experiment [11] has the same target. Put plainly: Induction of Lyn phosphorylation in human K562 CML cells assessed as peptide substrate consumption at 25 uM after 40 mins in presence of Bcr-Abl inhibitor Imatinib. Type of experiment: cell-based.
The target is the same in experiment [12]. Put plainly: Induction of Lyn phosphorylation in human K562 CML cells assessed as peptide substrate consumption at 25 uM after 20 mins in presence of Bcr-Abl inhibitor Imatinib. In kind it is cell-based.
Experiment [13] shares this target. Put plainly: Binding affinity to Lyn in human K562 CML cells assessed as increase of fluorescence. As to conditions: TDE = time-dependent effect. Type of experiment: cell-based.

Tyrosine-protein kinase Lyn (Homo sapiens), sequence (P07948 2-512 limits assumed): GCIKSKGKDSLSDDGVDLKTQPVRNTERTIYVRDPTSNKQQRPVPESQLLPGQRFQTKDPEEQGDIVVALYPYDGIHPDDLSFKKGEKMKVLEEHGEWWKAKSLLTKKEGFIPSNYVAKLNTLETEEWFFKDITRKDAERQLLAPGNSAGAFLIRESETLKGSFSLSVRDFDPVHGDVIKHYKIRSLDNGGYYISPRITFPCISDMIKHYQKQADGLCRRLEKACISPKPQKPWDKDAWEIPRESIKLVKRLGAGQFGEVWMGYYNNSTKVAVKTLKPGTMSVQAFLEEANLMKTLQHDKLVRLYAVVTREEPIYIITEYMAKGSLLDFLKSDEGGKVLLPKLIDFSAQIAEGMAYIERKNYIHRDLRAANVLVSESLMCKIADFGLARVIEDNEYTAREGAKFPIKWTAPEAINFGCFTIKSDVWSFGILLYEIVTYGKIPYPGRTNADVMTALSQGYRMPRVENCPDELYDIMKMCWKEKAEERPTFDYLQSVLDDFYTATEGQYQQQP

For `CC[C@H](C)[C@H](NC(=O)[C@H](CCC(=O)O)NC(=O)[C@H](CCC(=O)O)NC(=O)[C@H](CCC(=O)O)NC(=O)[C@H](C)N)C(=O)N[C@@H](Cc1ccc(O)cc1)C(=O)NCC(=O)N[C@@H](CCC(=O)O)C(=O)N[C@@H](Cc1cn(CCNS(=O)(=O)c2cccc3c(N(C)C)cccc23)nn1)C(=O)N[C@@H](CCC(=O)O)C(=O)N[C@@H](C)C(=O)N[C@@H](CCCCN)C(=O)N[C@@H](CCCCN)C(=O)N[C@@H](CCCCN)C(=O)N[C@@H](CCCCN)C(N)=O`, in experiment [1], the fold change (FC) stood at 0.

Turning to `CC[C@H](C)[C@H](NC(=O)[C@H](CCC(=O)O)NC(=O)[C@H](CCC(=O)O)NC(=O)[C@H](CCC(=O)O)NC(=O)[C@H](C)N)C(=O)N[C@@H](Cc1ccc(O)cc1)C(=O)NCC(=O)N[C@@H](CCC(=O)O)C(=O)N[C@@H](Cc1cn(Cc2cc(=O)oc3cc(N)ccc23)nn1)C(=O)N[C@@H](CCC(=O)O)C(=O)N[C@@H](C)C(=O)N[C@@H](CCCCN)C(=O)N[C@@H](CCCCN)C(=O)N[C@@H](CCCCN)C(=O)N[C@@H](CCCCN)C(N)=O`, in [1], the fold change (FC) was determined as 1.3.

As to `CC[C@H](C)[C@H](NC(=O)[C@H](CCC(=O)O)NC(=O)[C@H](CCC(=O)O)NC(=O)[C@H](CCC(=O)O)NC(=O)[C@H](C)N)C(=O)N[C@@H](Cc1ccc(O)cc1)C(=O)NCC(=O)N[C@@H](CCC(=O)O)C(=O)N[C@@H](Cc1cn(Cc2cc(=O)oc3cc(NC(C)=O)ccc23)nn1)C(=O)N[C@@H](CCC(=O)O)C(=O)N[C@@H](C)C(=O)N[C@@H](CCCCN)C(=O)N[C@@H](CCCCN)C(=O)N[C@@H](CCCCN)C(=O)N[C@@H](CCCCN)C(N)=O`, in experiment [1], the fold change (FC) came to 1.3.

Turning to `CC[C@H](C)[C@H](NC(=O)[C@H](CCC(=O)O)NC(=O)[C@H](CCC(=O)O)NC(=O)[C@H](CCC(=O)O)NC(=O)[C@H](C)N)C(=O)N[C@@H](Cc1ccc(O)cc1)C(=O)NCC(=O)N[C@@H](CCC(=O)O)C(=O)N[C@@H](Cc1cn(-c2ccc3ccc4cccc5ccc2c3c45)nn1)C(=O)N[C@@H](CCC(=O)O)C(=O)N[C@@H](C)C(=O)N[C@@H](CCCCN)C(=O)N[C@@H](CCCCN)C(=O)N[C@@H](CCCCN)C(=O)N[C@@H](CCCCN)C(N)=O` (H-AEEEIYGE[X1]EAKKKK-NH2), the outcome in experiment [2] and in [9] was inactive. Also, the Activity in experiment [3] was found to be 0.41%; in [4], 1.67%; in [5], 1.35%; in experiment [7] it was 2.01%; in experiment [8] it was 0.18%; in [10] it was 4.24%. In addition, the figures for the Activity in experiment [11], in experiment [12] and in experiment [13] were 0.33%, 0.25% and “tde”, respectively. Also, the fold change (FC) in experiment [6] and in experiment [1] was 4 in each case.

As for `CC[C@H](C)[C@H](NC(=O)[C@H](CCC(=O)O)NC(=O)[C@H](CCC(=O)O)NC(=O)[C@H](CCC(=O)O)NC(=O)[C@H](C)N)C(=O)N[C@@H](Cc1ccc(O)cc1)C(=O)NCC(=O)N[C@@H](CCC(=O)O)C(=O)N[C@@H](Cc1cn(-c2ccc3c4c(cccc24)C(=O)N(CC)C3=O)nn1)C(=O)N[C@@H](CCC(=O)O)C(=O)N[C@@H](C)C(=O)N[C@@H](CCCCN)C(=O)N[C@@H](CCCCN)C(=O)N[C@@H](CCCCN)C(=O)N[C@@H](CCCCN)C(N)=O` (H-AEEEIYGE[X2]EAKKKK-NH2), the fold change (FC) in experiment [1] is 2.5.

For the compound `CC[C@H](C)[C@H](NC(=O)[C@H](CCC(=O)O)NC(=O)[C@H](CCC(=O)O)NC(=O)[C@H](CCC(=O)O)NC(=O)[C@H](C)N)C(=O)N[C@@H](Cc1ccc(O)cc1)C(=O)NCC(=O)N[C@@H](CCC(=O)O)C(=O)N[C@@H](Cc1cn(-c2cccc3ccccc23)nn1)C(=O)N[C@@H](CCC(=O)O)C(=O)N[C@@H](C)C(=O)N[C@@H](CCCCN)C(=O)N[C@@H](CCCCN)C(=O)N[C@@H](CCCCN)C(=O)N[C@@H](CCCCN)C(N)=O` (H-AEEEIYGE[X3]EAKKKK-NH2), the fold change (FC) in experiment [1] amounted to 0.

`CC[C@H](C)[C@H](NC(=O)[C@H](CCC(=O)O)NC(=O)[C@H](CCC(=O)O)NC(=O)[C@H](CCC(=O)O)NC(=O)[C@H](C)N)C(=O)N[C@@H](Cc1ccc(O)cc1)C(=O)NCC(=O)N[C@@H](CCC(=O)O)C(=O)N[C@@H](Cc1cn(-c2cc3ccc(O)cc3oc2=O)nn1)C(=O)N[C@@H](CCC(=O)O)C(=O)N[C@@H](C)C(=O)N[C@@H](CCCCN)C(=O)N[C@@H](CCCCN)C(=O)N[C@@H](CCCCN)C(=O)N[C@@H](CCCCN)C(N)=O` (H-AEEEIYGE[X4]EAKKKK-NH2): the fold change (FC) in experiment [1] turned out to be 1.1.

As to `CC[C@H](C)[C@H](NC(=O)[C@H](CCC(=O)O)NC(=O)[C@H](CCC(=O)O)NC(=O)[C@H](CCC(=O)O)NC(=O)[C@H](C)N)C(=O)N[C@@H](Cc1ccc(O)cc1)C(=O)NCC(=O)N[C@@H](CCC(=O)O)C(=O)N[C@@H](Cc1cn(-c2ccc3c(C)cc(=O)[nH]c3c2)nn1)C(=O)N[C@@H](CCC(=O)O)C(=O)N[C@@H](C)C(=O)N[C@@H](CCCCN)C(=O)N[C@@H](CCCCN)C(=O)N[C@@H](CCCCN)C(=O)N[C@@H](CCCCN)C(N)=O` (H-AEEEIYGE[X5]EAKKKK-NH2), the fold change (FC) in experiment [1] was 0.

The record behind these values is ChEMBL document CHEMBL1641533, “A facile, click chemistry-based approach to assembling fluorescent chemosensors for protein tyrosine kinases” (Bioorg Med Chem Lett, 2011).
